Assay results from ChEMBL document CHEMBL1137815, “New cadinene sesquiterpenoids from the Formosan soft coral Xenia puerto-galerae” (2002).
In brackets after ≈: the same amount, converted by molar mass.

What was measured:
[1] = system: A549; assay: Cytotoxicity against human A549 cells by MTT method; format: functional; settings: read-out: ED50 (the source's name)
[2] = system: P388; assay: Cytotoxicity against mouse P388 cells by MTT method; format: functional; settings: read-out: ED50 (the source's name)

SMILES | EC50 [1] [µg/mL] | EC50 [2] [µg/mL]
C=C(C)[C@@H]1C(=O)C=C(C)[C@@H]2CC[C@H](C)C[C@@H]12 [XENITORIN B] | > 50 | > 50
C=C(C)[C@H]1[C@@H]2C[C@@H](C)CC[C@H]2C(C)=C[C@H]1O [XENITORIN A] | 0.79 (≈ 3.59 µM) | 
C=C(C)[C@@H]1[C@H](O)[C@@H]2O[C@]2(C)[C@@H]2CC[C@H](C)C[C@@H]12 [XENITORIN D] | > 50 | > 50
C=C(C)[C@@H]1C(=O)C=C(C)[C@@]2(O)CC[C@H](C)C[C@@H]12 [XENITORIN F] | > 50 | > 50
C=C(C)[C@@H]1C=C[C@](C)(O)[C@@H]2CC[C@H](C)C[C@H]21 [XENITORIN C] | > 50 | > 50
C=C(C)[C@@H]1C(=O)C=C(C)[C@]2(O)CC[C@H](C)C[C@@H]12 [XENITORIN E] | 1.86 (≈ 7.94 µM) | 3.69 (≈ 15.7 µM)
